Measured values published in patent US20090069317A1, “Insecticidal Methods Using 3-Amino-1,2-Benzisothiazole Derivatives” (BASF SE, priority 2005, published 2009).

Legend:
Bean Aphid (Aphis fabae) = test: Bean aphid (Aphis fabae) nasturtium plant dip test, mortality; format: in vivo; conditions: 72 h, nasturtium plants dipped, aphid mortality after 3 days, read-out: mortality in comparison with untreated controls
Excerpt: B.3. Bean Aphid (Aphis fabae)
(§1) The active compounds were formulated in 50:50 acetone:water and 100 ppm Kinetic® surfactant.
Nasturtium plants grown in Metro mix in the 1st leaf-pair stage (variety ‘Mixed Jewel’) were infested with approximately 20-30 laboratory-reared aphids by placing infested cut plants on top of the test plants. The cut plants were removed after 24 hr. Each plant was dipped into the test solution to provide complete coverage of the foliage, stem, protruding seed surface and surrounding cube surface and allowed to dry in the fume hood. The treated plants were kept at about 25° C. with continuous fluorescent light. Aphid mortality is determined after 3 days.

[1] = test system: Cotton Aphid (Aphis gossypii); test: Cotton aphid (Aphis gossypii) cotyledon dip test, mortality; format: in vivo; conditions: 120 h, cotton cotyledons dipped, mortality counts after 5 days, read-out: mortality in comparison with untreated controls
Excerpt: B.1 Cotton Aphid (Aphis gossypii)
as §1
Cotton plants at the cotyledon stage (one plant per pot) were infested by placing a heavily infested leaf from the main colony on top of each cotyledon. The aphids were allowed to transfer to the host plant overnight, and the leaf used to transfer the aphids was removed. The cotyledons were dipped in the test solution and allowed to dry. After 5 days, mortality counts were made.

[2] = test system: Green Peach Aphid (Myzus Persicae); test: Green peach aphid (Myzus persicae) pepper leaf dip test, mortality; format: in vivo; conditions: foliar, 120 h, pepper plant leaves dipped, aphid mortality after 5 days, read-out: mortality in comparison with untreated controls
Excerpt: B.2 Green Peach Aphid (Myzus Persicae)
as §1
Pepper plants in the 2nd leaf-pair stage (variety ‘California Wonder’) were infested with approximately 40 laboratory-reared aphids by placing infested leaf sections on top of the test plants. The leaf sections were removed after 24 hr. The leaves of the intact plants were dipped into gradient solutions of the test compound and allowed to dry. Test plants were maintained under fluorescent light (24 hour photoperiod) at about 25° C. and 20-40% relative humidity. Aphid mortality on the treated plants, relative to mortality on check plants, was determined after 5 days.

| melting point [°C] | Structure (SMILES) | mortality at 300 ppm (Bean Aphid (Aphis fabae)) [%] | mortality at 300 ppm [1] [%] | mortality at 300 ppm [2] [%] |
| --- | --- | --- | --- | --- |
|  | CON(C)C1=NS(=O)(=O)c2cccc(Cl)c21 [Compound 23] | > 86 | > 86 | > 86 |
|  | CCN(Cc1ccccc1)C1=NS(=O)(=O)c2cccc(Cl)c21 [Compound 12] | > 86 |  |  |
|  | C=CCN(C1=NS(=O)(=O)c2cccc(Cl)c21)C(C)C [Compound 9] | > 86 | > 86 |  |
|  | C=CCN(CCC)C1=NS(=O)(=O)c2cccc(Cl)c21 [Compound 8] | > 86 | > 86 |  |
|  | C#CCN(C1=NS(=O)(=O)c2cccc(Cl)c21)C(C)C [Compound 4] | > 86 | > 86 |  |
|  | CC(C)N(C1=NS(=O)(=O)c2cccc(Cl)c21)C(C)C [Compound 11] | > 86 |  |  |
|  | CC(C)N(C1=NS(=O)(=O)c2cccc(Cl)c21)C1CC1 [Compound 6] | > 86 | > 86 | > 86 |
|  | CCN(C)C1=NS(=O)(=O)c2cccc(Cl)c21 [Compound 7] | > 86 | > 86 | > 86 |
|  | CCCN(CC1CC1)C1=NS(=O)(=O)c2cccc(F)c21 [Compound 62] |  | > 86 | > 86 |
|  | CC(C)CN(C)C1=NS(=O)(=O)c2cccc(OC(F)F)c21 [Compound 42] |  | > 86 | > 86 |
|  | COc1cccc2snc(N(C)CC(C)C)c12 [Compound 83] |  | > 86 | > 86 |
|  | CN(C)c1nsc2cccc(Cl)c12 [Compound 49] | > 86 | > 86 | > 86 |
| 49 to 50 | CCN(CC)c1nsc2cccc(OC(F)F)c12 [Compound 59] |  |  |  |
|  | CCN(CC)C1=NS(=O)(=O)c2cccc(OC)c21 [Compound 27] |  | > 86 | > 86 |
|  | CCN(C1=NS(=O)(=O)c2cccc(OC(F)F)c21)C(C)C [Compound 33] |  | > 86 | > 86 |
|  | CN(C)C1=NS(=O)(=O)c2cccc(Cl)c21 [Compound 2] |  | > 86 | > 86 |
|  | CON(C)C1=NS(=O)(=O)c2cccc(OC(F)F)c21 [Compound 109] |  | > 86 | > 86 |
|  | COc1cccc2snc(N(C)C(C)C)c12 [Compound 82] |  | > 86 | > 86 |
|  | CCN(CC(C)C)C1=NS(=O)(=O)c2cccc(Cl)c21 [Compound 5] | > 86 | > 86 |  |
|  | CN(CC#N)C1=NS(=O)(=O)c2cccc(Cl)c21 [Compound 15] | > 86 | > 86 | > 86 |
|  | CCN(C)c1nsc2cccc(OC(F)F)c12 [Compound 80] |  | > 86 | > 86 |
|  | CCN(C)c1n[s+]([O-])c2cccc(Cl)c12 (stereo not shown) [Compound 88] |  | > 86 | > 86 |
|  | COc1c(Br)ccc2snc(N(C)C)c12 [Compound 48, (5-Bromo-4-methoxy-benzo[d]isothiazol-3-yl)-dimethyl-amine] |  | > 86 | > 86 |
|  | CCN(C)C1=NS(=O)(=O)c2cccc(OC)c21 [Compound 30, Ethyl-(4-methoxy-1,1-dioxo-1H-1λ^6-benzo[d]isothiazol-3-yl)-methyl-amine] |  | > 86 | > 86 |
|  | COc1cccc2snc(N(C)Cc3ccccc3)c12 [Compound 92] |  | > 86 | > 86 |
|  | C#CCN(C1=NS(=O)(=O)c2cccc(OC(F)F)c21)C(C)C [Compound 36] | > 86 | > 86 | > 86 |
|  | CCN(CC)C1=NS(=O)(=O)c2cccc(Cl)c21 [Compound 3] | > 86 | > 86 | > 86 |
